Results from US10285994B2, “Method of preventing or treating osteoporosis by neddylation inhibitor” (Chang Gung University, priority 2017, dated 2019).

Columns and labels:
MC3T3-E1 cells [1] = experiment: Osteogenesis, Alizarin Red S stain of MC3T3-E1 cells; assay type: cell-based, mouse; settings: MC3T3-E1, osteoblast differentiation medium, 21 days, FIG. 4B
Experimental: (§1) FIGS. 4A-4B respectively depict the osteogenesis of mouse pre-osteoblast cell line MC3T3-E1 cells incubated in the differentiation medium containing specified concentrations of MLN4924 for 21 days according to example 3 of the present disclosure. FIG. 4A: the growth of MC3T3-E1 cells during osteogenesis is analyzed by crystal violet staining. FIG. 4B: the osteogenesis of MC3T3-E1 cells on day 21 is analyzed by measuring Alizarin Red S stain. Diff: osteoblast differentiation medium. MLN: MLN4924.
(§2) The mouse pre-osteoblast cell line MC3T3-E1 cells were cultured in osteoblast differentiation medium with or without MLN4924 for 21 days.

P38 (pP38) = experiment: Western blot, sRANKL-induced P38 phosphorylation in RAW264.7 cells; assay type: cell-based, mouse; settings: RAW264.7, 30 min pre-treatment, sRANKL 50 ng/ml, FIG. 3A-3B
Experimental: FIGS. 3A-3D are data collected from Western blot analysis that respectively depict the expression of specified protein extracted from the RAW264.7 cells, which are pre-treated with specified concentrations of MLN4924 for 30 minutes followed by the stimulation of sRANKL (50 ng/ml) according to example 2 of the present disclosure. FIG. 3A: the time course effect of MLN4924 on the phosphorylations of ERK (pERK), P38 (pP38) and JNK (pJNK). FIG. 3B: the dose effect of MLN4924 on the phosphorylations of ERK (pERK), P38 (pP38) and JNK (pJNK). FIG. 3C: the time course effect of MLN4924 on the expression of NFATc-1. FIG. 3D: the dose effect of MLN4924 on the expression of NFATc-1. Mock: untreated control; R: sRANKL; M: MLN4924.
The RAW264.7 cells were starved with serum-free medium for six hours and then treated with the specified treatments. At indicated time points, the cells were washed with cold phosphate-buffered saline (PBS) and lysed in RIPA buffer containing complete protease inhibitor cocktail (Roche). The cell lysates were separated by SDS-PAGE followed by Western blotting with the indicated antibodies, including NEDD8, APPBP1, UBA3.
Specifically, the inhibitory effect increased with an increase in the MLN4924 concentration (FIG. 3B).

cathepsin K = experiment: Cathepsin K activity fluorometric assay, RAW264.7 cells; assay type: cell-based, mouse; settings: sRANKL-activated RAW264.7 cells, 7 days, FIG. 2C
Experimental: FIGS. 2A-2D are data collected from RAW264.7 cells respectively incubated in the medium containing sRANKL (50 ng/ml) and specified concentrations of MLN4924 for 7 days according to example 1.2 of the present disclosure. FIG. 2A: the photographs of TRAP staining depicting the differentiation of osteoclasts from RAW264.7 cells. FIG. 2B: after the differentiation of osteoclasts in Corning Osteo Surface, the cells were removed, and the resorbed areas for confirming osteoclast activity were analyzed by 1% toluidine blue staining. FIG. 2C: the culture medium is subject to Biovision Cathepsin K Activity Fluorometric Assay Kit for the analysis of cathepsin K activity. FIG. 2D: the effect of effective doses of MLN4924 on the viability of RAW264.7 cells is evaluated by MTT assay. Scale bar represents 100 μm. Data are expressed as mean±SD where *p<0.05.
The pre-osteoclasts and RAW264.7 cells were seeded into Corning Osteo Surface Assay 96-wells plate (Corning, Kennebunk, Me.). Twenty-four hours later, the cells were treated with sRANKL (50 ng/ml) and specified concentrations of MLN4924 for 7 days. The cells were then harvested so as to evaluate the cathepsin K activity by use of Biovision Cathepsin K Activity Fluorometric Assay Kit (Biovision, Milpitas, Calif.). The Corning Osteo surface was stained with 1% toluidine blue for 24 hours and washed with deionized water twice. […]

[2] = test system: primary mouse bone marrow-derived macrophages (BMMs); experiment: Osteoclast formation from BMMs, TRAP staining; assay type: cell-based; settings: sRANKL 50 ng/ml, M-CSF 40 ng/ml, 7 days, FIG. 1A
Experimental: FIGS. 1A-1D are data collected from primary mouse bone marrow-derived macrophages (BMMs) respectively incubated in the medium containing the soluble recombinant RANKL (sRANKL, 50 ng/ml), macrophage colony-stimulating factor (M-CSF, 40 ng/ml) and specified concentrations of MLN4924 for 7 days according to example 1.1 of the present disclosure. FIG. 1A: the photographs of TRAP staining depicting the differentiation of osteoclasts from BMMs. FIG. 1B: after the differentiation of osteoclasts in Corning Osteo Surface (a synthetic 3-dimensional structure that mimics in vivo bone for in vitro bone cell assays), the cells were removed, and the resorbed areas for confirming osteoclast activity were analyzed by 1% toluidine blue staining. FIG. 1C: the culture medium is subject to Biovision Cathepsin K Activity Fluorometric Assay Kit for the analysis of cathepsin K activity. FIG. 1D: the effect of effective doses of MLN4924 on the viability of BMMs is evaluated by MTT assay. Scale bar represents 100 μm. Data are expressed as mean±SD where *p<0.05; **p<0.01.
The pre-osteoclast cells were prepared by mouse bone marrow-derived macrophage (BMM). In brief, the femurs and tibias were obtained from 6-12 week old C57BL/6J female mice. […]

MC3T3-E1 cells [3] = experiment: Osteoblast survival, crystal violet staining of MC3T3-E1 cells; assay type: cell-based, mouse; settings: MC3T3-E1, osteoblast differentiation medium, 21 days, FIG. 4A
Experimental: as §1, §2

With NS(=O)(=O)OC[C@@H]1C[C@@H](n2ccc3c(N[C@H]4CCc5ccccc54)ncnc32)C[C@@H]1O [MLN4924, (1S,2S,4R)-4-(4-((1S)-2,3-Dihydro-1H-inden-1-ylamino)-7H-pyrrolo(2,3-d)pyrimidin-7-yl)-2-hydroxycyclopentyl) methyl sulphamate] the “differentiation of osteoblasts (Alizarin Red S)” value (MC3T3-E1 cells [1]) was “neither the survival of osteoblasts (FIG. 4A), nor the differentiation of osteoblasts (FIG. 4B) was affected”, the “sRANKL-upregulated phosphorylation of P38 (pP38)” value (P38 (pP38)) was “inhibited” and the “osteolytic enzyme cathepsin K activity of osteoclasts” value (cathepsin K) was “significantly inhibited”. For the same compound, the “sRANKL-mediated osteoclast formation (TRAP staining)” value [2] was “obviously suppressed the sRANKL-mediated osteoclast formation in a dose-dependent manner” and the “survival of osteoblasts (crystal violet)” value (MC3T3-E1 cells [3]) was “neither the survival of osteoblasts (FIG. 4A), nor the differentiation of osteoblasts (FIG. 4B) was affected”.
